Structures are written as SMILES.

`Cn1cncc1C(O)(c1ccc(C=O)cc1)c1ccc2c(c1)c(-c1cccc(Cl)c1)cc(=O)n2C` (stereo not drawn): the melting point stood at 208 °C.
As for `CC(C)(C)c1ccc2c(c1)C(=O)CC2`, the melting point fell in the range of 94 to 96 °C.
To `CCCN(CCC)c1ccc(NC(=O)N(C[C@H]2CC[C@H](CN(C(=O)Nc3ccc(N(CCC)CCC)cc3)C3CCCCC3)CC2)C2CCCCC2)cc1` belongs 147 to 150 °C; to `O=C(NOCC(O)CO)c1cc(Cl)c(F)c(F)c1Nc1ccc(I)cc1Cl` (stereo not drawn), 152 to 154 °C; to `O=C1CC(c2ccccc2)N(C(=O)Cl)N1` (stereo not drawn), 146 °C.
The compound `Cn1cc2c(OCC3COC(Cn4ccnc4)(c4ccc(Cl)cc4Cl)O3)cc(-c3ccccc3)nc2n1` (stereo not drawn) registered a melting point of 227 to 229 °C.
To `CC(C)(c1ccc2ncccc2c1)n1nnc2ccc(-c3ccc(C(N)=O)c(F)c3)nc21` belongs 127 to 130 °C; to `CCOC(=O)c1ccc(NCc2ccccc2)cc1`, 90 to 93 °C; to `NC(=O)c1cn(C(CO)COc2ccccc2)cn1` (stereo not drawn), 148 to 150 °C.
To `CC(=O)c1ccc(-c2ccc(C(C)=O)s2)s1` belongs 235 °C.
To `COc1ccc(CCNC(=O)CN(C(=O)OCc2ccccc2)c2ccc(C)cc2)cc1OC` belongs 81 to 85 °C.
`C=CS(=O)(=O)NCCCc1ccc(C2=NNC(=O)CC2)cc1` had a melting point of 133 to 135 °C.
In turn, `COc1ccn(O)c(=O)c1` gave a melting point of 174 to 175 °C.
To `CCCC(Cc1ccc(OCCN2CCCCCC2)cc1)(C(=O)NO)S(=O)(=O)c1ccc(OC)cc1` (stereo not drawn) belongs 85 °C; to `CCN(CC)C(=O)C(C)Oc1cc(-c2ccccc2)nc2ccccc12` (stereo not drawn), 124 °C.
To `O=S(=O)(c1ccc(Cl)cc1)C(CCc1ccccc1)c1cc(F)ccc1F` (stereo not drawn) belongs 111 to 113 °C; to `O=C1Nc2ccccc2C12CCNCC2`, 184 to 186 °C; to `FC(F)(F)c1cc(I)ccc1-c1ccc(I)cc1C(F)(F)F`, 119 to 120 °C.
To `NS(=O)(=O)c1cccc2c1S(=O)(=O)CC2` belongs 215 to 217 °C; to `c1cncc(-c2nncs2)c1`, 78 to 79 °C; to `Clc1ccc(C2OC3(CCN(Cc4ccccc4)CC3)N3CCCCC23)cc1` (stereo not drawn), 134 to 136 °C.
`Cc1ccnc2c1nc(COc1ccc(CC3SC(=O)N(C(c4ccccc4)(c4ccccc4)c4ccccc4)C3=O)cc1)n2C` (stereo not drawn) had a melting point of 92 to 105 °C.
Compound `O=C(O)c1ccc(OCCCc2ccc(OCCCC3CCCCC3)cc2)c(C(=O)NC2CCCC(C(=O)O)C2)c1` (stereo not drawn) displayed a melting point of 160 °C.
To `Cc1ccc(-n2ncc(C(=O)Nc3ccc(N4CCC(N5CCOCC5)CC4)c(C#N)c3)c2C)cc1` belongs 243 °C.
To `Cc1ccc(S(=O)(=O)ON=C2CCCc3c2ccc(OCc2ccccc2)c3N(C)C(=O)OCc2ccccc2)cc1` belongs 158 to 160 °C.
To `CO[C@@H]1C[C@H]2[C@H](C(=O)O)[C@H]2[C@]1(N)C(=O)O` belongs above 250 °C.
Regarding `COCCCc1cc(F)c2ncc(C(=O)NCc3ccc(Cl)cc3)c(O)c2c1`, the melting point lay in the range of 189 to 192 °C.
To `COC(=O)Cc1cccc(NC(=O)NC2C(=O)Nc3ccccc3NC2=O)c1` belongs above 300 °C.
To `Fc1ccc(-c2c[nH]c(C3CCN(CC4CCCCC4)CC3)n2)cc1` belongs 220 to 222 °C.
To `C#Cc1cccc([C@H]2C[C@H]2NC(=O)Nc2ccc(Cl)cn2)c1` (racemic) belongs 148 to 150 °C.
For `C=Cc1cnc(-c2ccccn2)nc1`, the melting point is 103 °C.
In turn, `CCCc1ccc(C(=O)O)cc1[N+](=O)[O-]` displayed a melting point of 106 to 109 °C.
Regarding `O=C1c2cc(-c3ccccc3)ccc2-c2c1c1ccc([N+](=O)[O-])cc1c(=O)n2CCCNS(=O)(=O)c1ccccc1`, the melting point fell in the range of 246 to 247 °C.
To `CCCn1cc2c(C3C(=O)Nc4ccc(C#N)cc43)nc(NCCc3cccnc3)nc2n1` (stereo not drawn) belongs 302 to 305 °C.
In turn, `CCCN(CCC)C(=O)C(CCC(=O)N(C)C)NC(=O)C=Cc1ccco1` (stereo not drawn) had a melting point of 114 to 116 °C.
To `CCOC(=O)C(Cc1ccc(Cl)cc1)NC(=S)Nc1ccc(C(C)C)cc1` (stereo not drawn) belongs 73 to 75 °C.
To `COC(=O)c1ccc(NS(=O)(=O)c2ccc(Oc3cccc(Cl)c3C#N)cc2)cn1` belongs 153 to 155 °C; to `CCNC(=O)CCC1CCN(Cc2cnc3cc(NC(=O)c4ccc(-c5ccc(F)cc5)cc4)c(C)cc3c2)CC1`, 227 to 230 °C.
To `CCOc1nc(CC)c(CNC(=O)C(S)CC(C)C)n1Cc1ccc(-c2ccccc2C(=O)O)cc1F` (stereo not drawn) belongs 151 °C; to `O=C1c2ccccc2-c2ccc(Cl)c3cccc1c23`, 179 to 190 °C.
For `Cc1nn(C)c(-n2ccc3cc(Cl)cnc32)c1/C=C/C(=O)NS(=O)(=O)NCC1CC1`, the melting point is 209 to 210 °C.
Take `CC(C)(C)OC(=O)NC1CCCCCC=CC2CC2(C(=O)NS(=O)(=O)C2CC2)NC(=O)C2CC(OC(=O)c3ccc4c(c3)OCCO4)CN2C1=O` (stereo not drawn): the melting point is 199 to 201 °C.
`CCOCCc1ccc(OCCNc2ncnc3scc(C)c23)c(C)c1`: the melting point fell in the range of 55 to 57 °C.
The compound `C=CCOc1ccccc1C(=O)Nc1c(CCC)nn(C)c1C(N)=O` gave a melting point of 132 to 134 °C.
To `Cc1nc(-n2cnn(CC3CC3(F)F)c2=O)sc1C(=O)O` (stereo not drawn) belongs 220 to 222 °C.
The compound `COc1cc(CC(COC(C)=O)NC(=O)c2ccccc2)cc2c1OC(C)(C)C2` (stereo not drawn) gave a melting point of 141 to 142 °C.
To `COc1ccc2[nH]cc(-c3cc4c(OC)ncnc4[nH]3)c2c1` belongs above 260 °C; to `CC(C)c1cccc2c1C(=O)N(COC(=O)c1c(Cl)ccc(O)c1Cl)S2(=O)=O`, 78 to 80 °C; to `C[C@@H](O)CNC(=O)N1CC(Oc2ccc(C(C)(C)C)cc2)C1`, 104 to 105 °C.
For the compound `FC(F)(F)Oc1ccc(-c2csc(Nc3cc4ccccc4cn3)n2)cc1`, the melting point lay in the range of 269 to 271 °C.
To `Cc1ccnc(C(O)c2sc(NC(=N)N)nc2C)c1` (stereo not drawn) belongs 150 to 152 °C; to `COC(=O)NNC(=O)Cc1ccccc1`, 94 to 95 °C.
Compound `CNc1c2c(nn1C)N(c1c(C)cc(C)cc1C)CCC2` registered a melting point of 143 to 145 °C.
To `Clc1cnc(Br)c(Cl)c1` belongs 37 to 38 °C; to `Cc1cccc(N2CCN(c3ccc(S)nn3)CC2)c1`, 174 °C; to `O=C(CC(=Cc1cccc2ccccc12)C(=O)O)NCCc1ccccc1`, 183 to 187 °C.
To `COc1ccc(C(=O)SC)c(O)c1` belongs 56 to 57 °C; to `COC(=O)c1ccc(N2CCN(Cc3ccccc3)CC2)cc1`, 105 to 107 °C; to `Nc1cccc2c1C(=O)c1c(N)cccc1C2=O`, 272 to 273 °C.
To `CNC(=O)c1cc(-c2ccc(OC)cc2)nn(CC2CCCC2)c1=O` belongs 107 to 108 °C; to `O=C(c1nc(-c2ccc(F)cc2)c(-c2ccc(F)cc2)[nH]1)C(F)(F)F`, 214 to 216 °C; to `CN1CC(CCN2CCN(c3ccc([N+](=O)[O-])cc3)CC2)OC1=O` (stereo not drawn), 155 to 156 °C.
Consider `CCOC(=O)CNCC1CC2c3cccc4[nH]cc(c34)CC2N(C)C1` (stereo not drawn), for which the melting point was in the range of 174 to 176 °C.
To `CC(C)CCCC(C)C1CCC2C3CC4(OCCO4)C4CC(O)CCC4(C)C3CCC12C` (stereo not drawn) belongs 114 to 115 °C.
`COc1ccc(C(O)c2nn(C)c3c2CCc2c(C(N)=O)sc(Oc4ccc5c(c4)OCO5)c2-3)cc1` (stereo not drawn) gave a melting point of 187 to 188 °C.
With `Nc1c(Cl)cc(C(O)CNCCCCCC(=O)OCCOc2ccccc2)cc1Cl` (stereo not drawn), the melting point lay within 46 to 47 °C.
To `COc1ccc(OC)c(C(Nc2ccc(C(=N)N)cc2)C(=O)O)c1` (racemic) belongs 310 °C.
To `COc1ccc2c(C(=O)CC(C)=O)c(OC)ccc2c1` belongs 88 °C; to `CC1(C)CCC(C)(C)c2cc(C(=O)OCc3ccc(C(=O)OCc4ccccc4)cc3)ccc21`, 78 to 79 °C; to `O=C(/C=C/c1c[nH]c2ccccc12)c1cccnc1`, 192 to 194 °C.
The compound `CN1CCN(c2cccc3c(S(=O)(=O)c4ccccc4)c[nH]c23)CC1` came in with a melting point of 160 to 162 °C.
To `CC(C)CC(=O)Nc1c(C(N)=O)nnn1Cc1ccccc1` belongs 181 to 182 °C.
To `CC(C#N)=Cc1ccc(C=O)cc1` belongs 63 to 64 °C; to `CN(C)C=Nc1nnnc2c1ncn2C1CC(O)C(CO)O1` (stereo not drawn), 173 to 175 °C; to `COc1ccc(CN(C)CCc2ccc(NC(=O)c3cccc4c(=O)c5ccccc5[nH]c34)cc2)cc1OC`, 172 °C.
To `ClCc1coc(-c2cccc(OCc3ccccc3)c2)n1` belongs 49 to 50 °C; to `Oc1ccc(C(=C2CCNCC2)c2ccccc2)cc1`, above 260 °C; to `Cc1ccc(-c2cccc3cc(Cc4cccc(C(F)(F)F)c4)sc23)cc1C(=O)NCC(N)=O`, 143 to 144 °C.
`O=C(NCCC1CCCCC1)c1cc(-c2ccc(Cl)c(C(=O)O)n2)ccc1Cl`: the melting point was in the range of 116 to 120 °C.
To `CCCCc1nc2c(N)nc3ccccc3c2n1CCN1C(=O)NC2CSC(CCCCC(N)=O)C21` (stereo not drawn) belongs 124 to 126 °C; to `COC(=O)c1ccc(CCc2ccncc2)cc1`, 62 to 64 °C.
To `CC(C)(C)OC(=O)NC(Cc1ccccc1)C(O)C(N)Cc1ccccc1` (stereo not drawn) belongs 134 to 135 °C.
As for `CCCN(CCC)[C@@H]1CCc2ccc(C(N)=O)cc2C1`, the melting point came to 132 °C.
Compound `NCc1ccc2ccnc(N)c2c1` had a melting point of 114 to 117 °C.
For the compound `CCCCCS(=O)(=O)NC(=O)/C=C/c1cc(OCCCC)nn1Cc1ccc(C(F)(F)F)cc1Cl`, the melting point lay in the range of 130 to 132 °C.
To `CCCCCCCCCCCc1ccc(-c2ccc(OCC(C)CC)nn2)cc1` (stereo not drawn) belongs 78 °C; to `CC(ON1C(C)(C)CNC(=O)CC1(C)C)c1ccccc1` (stereo not drawn), 125 to 127 °C.
The compound `O=[N+]([O-])c1cc2nc(O)c(O)nc2c2scnc12` showed a melting point above 360 °C.

What is called melting point is the temperature of the solid-liquid transition.

(Values after a melting point compilation (Tetko et al.; mined from patent text by program, amines drawn as free bases though some values may be those of a salt).)
